Consider 21 molecules from PubChem BioAssay (NCI).

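Test compounds were applied to cells in 96-well plates for 48 hours at 5 doses. At the GI50, growth is halved. The concentration for full growth arrest is given as TGI.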

What all share (assay): inhibition of tumour cell growth, NCI panel, 48 h
Test [1] concerns MDA-MB-231 breast.
The test system of test [2] is HOP-92 NSCLC.
The test system of test [3] is EKVX NSCLC.
For test [4], the system named is SF-539 CNS.
For test [5], the system named is SNB-75 CNS.
Test [6] concerns IGROV1 ovarian.
Test [7] relates to CAKI-1 renal.
Test [8] concerns SK-MEL-28 melanoma.
Test [9] relates to NCI-H460 lung.
In test [10] the test system is MALME-3M melanoma.

On to `Cc1[nH]c(-c2ccccc2)c(-c2ccc(Cl)cc2)c1C(=O)ONC(=O)c1ccccc1`, for which the TGI came to 12.1 µM in test [1]; 4.01 µM in [2]; 9.77 µM in test [3]; 6.02 µM in test [4]; 15.1 µM in test [5]; 2.52 µM in test [6]. Besides, the TGI was 6.88 µM in [7], 24.9 µM in test [8], 5.11 µM in test [9] and 23.5 µM in test [10].
As to `CCOC(=O)C(Cc1ccccc1)(Cc1ccc(O)cn1)NC(=O)c1ccccc1` (stereo not given), the TGI in test [1] is 99.6 µM; in [2], 59.1 µM; in test [3], over 100 µM; in [4] it was 60.6 µM; in [5] it was over 100 µM; in test [6], 96.7 µM. Moreover, the TGI in test [7] is 87 µM; in test [8], over 100 µM; in test [9], 99.2 µM; in test [10], 48.8 µM.
Take `NC(CCCCNC(=O)OCc1ccccc1)C(=O)NC(CCCCNC(=O)OCc1ccccc1)C(=O)ON1C(=O)CCC1=O` (stereo not given): the TGI in [1], in test [2], in [3], in test [5], in [6] and in test [8] was over 100 µM each time. Besides, the TGI in [9] and in test [10] was over 100 µM throughout.
`COC(=O)[C@@H]1N2C(=S)N(c3ccccc3)C(=O)[C@H]2SC1(C)C`: the TGI in test [1] is over 100 µM; in [2] it was 69.2 µM; in test [3], over 100 µM; in test [4], over 100 µM; in test [5], over 100 µM; in [6], over 100 µM. Moreover, the TGI in [7], in test [8] and in test [9] was over 100 µM in each case.
In the case of `CCOC(=O)C1=C(C)NC(=S)NC1c1cccc(O)c1` (stereo not given), the TGI was over 90 µM in [1]; over 84.3 µM in [2]; over 100 µM in test [3]; over 100 µM in test [4]; over 95.4 µM in [5]; over 100 µM in test [6]. Besides, the TGI in [7], in test [8], in test [9] and in test [10] was over 100 µM in each case.
As for `O=C(NNC(=S)Nc1ccccc1)c1csc(NC(=S)NC2CCCCC2)n1`, the TGI in [1], in [2], in [3], in [4], in [5] and in [6] was over 100 µM throughout. Moreover, the TGI in test [7] and in test [10] was over 100 µM in each case.
Turning to `CSc1ncc2c(n1)-c1ccccc1OC2N1CCCC1` (stereo not given), the TGI in test [1], in test [2], in test [3], in test [4], in test [5] and in [6] was over 100 µM each time. In addition, the figures for the TGI in [7] and in test [9] were 83.4 µM and over 100 µM, respectively.
As to `O=C1NC(N/N=C\c2ccccc2)=N/C1=C/c1ccc(Cl)cc1`, the TGI in [1] is over 100 µM; in test [3] it was 67.4 µM; in [4] it was 53.8 µM; in test [5], 42.2 µM; in test [6], 41.2 µM; in test [7], over 100 µM. Also, the TGI in [8] is over 100 µM; in [9], 53.5 µM; in [10], 62.1 µM.
On to `CN(C(=O)c1ccc(Cl)s1)C(=S)N(C)C(=O)c1ccc(Cl)s1`, for which the TGI in test [1], in test [2], in [3], in test [4], in [5] and in test [6] was over 10 µM throughout. Also, the TGI in test [7], in [8], in test [9] and in test [10] was over 10 µM throughout.
In the case of `O=C1c2ccccc2CC12Cc1ccc3c(c1C2)CCC3` (stereo not given), the TGI was 47.1 µM in [1]; 34.9 µM in test [2]; 47.7 µM in test [3]; 90.2 µM in test [4]; 97.9 µM in test [5]; over 100 µM in [6]. Further, the TGI is over 100 µM in test [7], over 100 µM in [8], 79.2 µM in [9] and 30.3 µM in [10].
With `CC(C)n1c(=O)n(-c2ccccc2)n(C(C)(C)C)c1=O`, the TGI in test [1], in test [2], in [3], in test [4], in test [5] and in test [6] was over 100 µM throughout. The TGI in test [7], in test [8], in test [9] and in test [10] was over 100 µM in each case.
For `CCOC(=O)c1c(N2CCOCC2)[nH]c(=O)c(C(c2ccc(OC)cc2)c2c(O)c(C(=O)OCC)c(N3CCOCC3)[nH]c2=O)c1O`, the TGI in test [1], in [2], in test [3], in test [4], in [5] and in test [7] was over 100 µM throughout. The TGI in test [8], in test [9] and in test [10] was over 100 µM throughout.
Take `COc1ccc2c(c1)CCc1c-2n(CCN(C)C)c2ccc(OC)cc12`: the TGI in test [1] was over 100 µM; in test [2] it was over 100 µM; in test [3], over 100 µM; in test [5], 76.5 µM; in [6] it was 79.5 µM; in test [7], over 100 µM. Also, the results for the TGI in test [8], in test [9] and in test [10] were 33.6 µM, over 100 µM and 53.5 µM, respectively.
On to `COc1cc2ccnc3c2c(c1O)N(C)C=C3`, for which the TGI in test [1] was over 71.1 µM; in test [2], over 100 µM; in test [3] it was 33.4 µM; in [5] it was 38.8 µM; in test [6] it was 26.1 µM; in [7], 20.6 µM. Moreover, the TGI in [8] was over 66.2 µM; in test [9], over 66 µM; in test [10], 21.7 µM.
In the case of `COC(OC)C(O)C1OC=CC1n1cnc2c(N)ncnc21` (stereo not given), the TGI in test [1], in test [2], in test [3], in [4], in [5] and in test [6] was over 100 µM throughout. In addition, the TGI in test [7], in test [8] and in test [9] was over 100 µM in each case.
On to `CCOC(=O)c1cn(-c2ccc(Cl)cc2)c(=O)n2c1nc1ccccc12`, for which the TGI in test [1], in test [2], in test [3], in test [4], in test [5] and in test [6] was over 100 µM each time. The TGI in test [7], in [8] and in test [9] was over 100 µM throughout.
In the case of `CN1C2CC(=O)CC1[C@@H]1OC(c3ccccc3)O[C@H]21` (stereo not given in full), the TGI in test [1], in [3], in [4], in test [5], in [6] and in [7] was over 100 µM throughout. Further, the TGI in [8], in test [9] and in [10] was over 100 µM throughout.
As to `CC1=CC[C@@H]2CC[C@]3(C)[C@H](CC[C@@H]4[C@@]5(C)CCCNC(C)(C)[C@@H]5CC[C@]43C)[C@H]2[C@@H]1C`, the GI50 in test [1] is 1.8 µM; in test [2], 1.39 µM; in test [3], 1.74 µM; in [4] it was 1.69 µM; in test [5] it was 1.98 µM; in [7] it was 1.69 µM. Also, the GI50 is 1.81 µM in [8], 1.48 µM in test [9] and 1.77 µM in [10]. Besides, the TGI is 3.47 µM in test [1]; 2.77 µM in test [2]; 3.38 µM in [3]; 3.13 µM in test [4]; 3.84 µM in test [5]; 3.05 µM in test [7]. The TGI in test [8] was found to be 3.32 µM; in [9] it was 3.09 µM; in [10], 3.48 µM.
`O=C(NCCO)c1ccc(Cl)cc1`: the TGI in [1], in test [2], in test [3], in test [5], in test [6] and in test [7] was over 100 µM throughout. The TGI in test [8], in [9] and in test [10] was over 100 µM in each case.
Consider `O=C(O)c1ccccc1/C=N\NC1=NCCCCN1`, for which the TGI in test [1], in test [3], in [4], in test [5], in test [6] and in test [7] was over 100 µM each time. The TGI in test [9] and in test [10] was over 100 µM in each case.
With `CC1(C)[C@@H]2C[C@H]1c1cnc(-c3ccccn3)cc1C2[C@@H]1c2cc(-c3ccccn3)ncc2[C@@H]2C[C@H]1C2(C)C` (stereo not given in full), the TGI in [1], in test [2], in test [3], in test [5], in [6] and in test [7] was over 100 µM throughout. In addition, the TGI in [8], in [9] and in [10] was over 100 µM in each case.
